For this experiment, the system named is AP-1. Briefly: Cellular transrepression assay (AP-1 luciferase reporter in A549 cells, PMA activated). The note with it: 10 ng/ml PMA; for EC50: read-out: AP-1 (EC50, nM) (measured in cellular transrepression assay); for Emax: read-out: AP-1 Max % inhibition (measured in cellular transrepression assay). Format: cell-based. As for the experimental part: Cellular Transrepressional Assay
To measure the ability of test molecules to inhibit AP-1 induced transcriptional activity we utilized an A549 cell which was stably transfected with a plasmid containing 7×AP-1 DNA binding sites (pAP-1-Luc plasmid, Stratagene Co. La Jolla, Calif.) followed by the gene for luciferase. Cells were activated with 10 ng/ml of phorbol myristic acid (PMA) plus or minus test molecules for 7 hours. After 7 hours a luciferase reagent was added to measure luciferase enzymatic activity in the cell. After a 10 minute incubation of luciferase reagent with cells, luminescence was measured in a TopCount luminescence counter. Repression of AP-1 activity was calculated as the percentage decrease in the signal induced by PMA alone. Test molecules were analyzed in the concentration range from 0.1 nM to 40 μM. EC50s were determined by using standard curve fitting methods such as Excel fit (Microsoft Co.). An EC50 is the test molecule concentration at which there is a 50% repression of the maximal inhibition of transcription, i.e. a 50% reduction of AP-1 activity.
For orientation: In a reporter assay the amount or activity of a reporter protein is the signal.

Where two headings read alike, the source gives them in different places.

Regarding `Cc1ccc2c(n1)Oc1nc(-c3ccc([S+]([O-])C(C)C)cc3)ccc1C2C(C)(C)C(=O)Nc1nncs1` (stereo in doubt) [Example 82, 2-((5S)-2-(4-(isopropylsulfinyl)phenyl)-8-methyl-5H-pyrido[3′,2′:5,6]pyrano[2,3-b]pyridin-5-yl)-2-methyl-N-1,3,4-thiadiazol-2-ylpropanamide], for the setting “7 h”, the half-maximal effective concentration (EC50) (usually the concentration that produces a half-maximal response) was found to be 181 nM and the Emax amounted to 34.4%.
Take `CCNC(=O)c1nnc(NC(=O)C(C)(C)[C@H]2c3ccc(C)nc3Oc3nc(-c4ccc(C(=O)N(C)CC)cc4)ccc32)s1` [Example 48]: for the setting “7 h”, the EC50 was 341 nM and the Emax was found to be 59.4%.
As for `Cc1ccc2c(n1)Oc1nc(-c3ccc(C(=O)N4CCCC4)cc3)ccc1C2C(C)(C)C(=O)Nc1nncs1` (stereo not drawn) [Example 16], for the setting “7 h”, the concentration giving a half-maximal response (EC50) was 541 nM and the Emax was found to be 40.2%.
`CCN(C)C(=O)c1ccc(-c2ccc3c(n2)Oc2nc(C)ccc2[C@@H]3C(C)(C)C(=O)Nc2nncs2)cc1F` [Example 21]: under “7 h”, the concentration for a half-maximal effect (EC50) stood at 166 nM and the Emax worked out at 49.7%.
For `CN(C)C(=O)c1ccc(-c2ccc3c(n2)Oc2nc(Cl)ccc2C3C(C)(C)C(=O)Nc2nncs2)cc1` (stereo not drawn) [Example 54, 4-(8-chloro-5-(1,1-dimethyl-2-oxo-2-(1,3,4-thiadiazol-2-ylamino)ethyl)-5H-pyrido[3′,2′:5,6]pyrano[2,3-b]pyridin-2-yl)-N,N-dimethylbenzamide], under “7 h”, the concentration giving a half-maximal response (EC50) was 33.8 nM and the Emax stood at 59.2%.
In the case of `Cc1nnc(NC(=O)C(C)(C)C2c3ccc(Cl)nc3Oc3nc(-c4ccc(C(=O)N5CCOCC5)cc4)ccc32)s1` (stereo not drawn) [Example 63], where the note is “7 hours”, the “AP-1 Max % inhibition (measured in cellular transrepression assay)” value was found to be 54.57% and the 50% effective concentration (EC50) was 87 nM.
In the case of `CC(C)(C(=O)Nc1nncs1)C1c2ccc(Cl)nc2Oc2nc(-c3ccc(C(=O)N4CCOCC4)cc3)ccc21` (stereo not drawn) [Example 60], where the note is “7 h”, the EC50 came to 10.7 nM and the Emax is 57.5%.
Consider `CCN(C)C(=O)c1ccc(-c2ccc3c(n2)Oc2nc(C)ccc2C3C(C)(C)C(=O)Nc2nncs2)cc1` (stereo not drawn) [Example 14, 4-(5-(1,1-dimethyl-2-oxo-2-(1,3,4-thiadiazol-2-ylamino)ethyl)-8-methyl-5H-pyrido[3′,2′:5,6]pyrano[2,3-b]pyridin-2-yl)-N-ethyl-N-methylbenzamide], for which, where the note is “7 h”, the concentration for a half-maximal effect (EC50) turned out to be 97.2 nM and the Emax stood at 58%.
In the same order, the values of `CC(C)(C(=O)Nc1nncs1)C1c2cccnc2Oc2nc(-c3ccc(C(=O)N4CCOCC4)cc3)ccc21` (stereo not drawn) [Example 5] are 142 nM and 33.9%.
On to `Cc1ccc2c(n1)Oc1nc(-c3ccc(C(=O)N4CCC4)cc3)ccc1[C@H]2C(C)(C)C(=O)Nc1nncs1` [Example 38], for which, for the setting “7 h”, the EC50 was determined as 470 nM and the Emax was determined as 41.9%.
The corresponding values for `CCN(C)C(=O)c1ccc(-c2ccc3c(n2)Oc2nc(Cl)ccc2C3C(C)(C)C(=O)Nc2nncs2)cc1` (stereo not drawn) [Example 59] are 15.8 nM and 62.3%.
As to `Cc1nsc(NC(=O)C(C)(C)C2c3ccc(Cl)nc3Oc3nc(-c4ccc(C(=O)N(C)C)cc4)ccc32)n1` (stereo not drawn) [Example 57], where the note is “7 h”, the EC50 came out at 68.5 nM and the Emax came out at 31.4%.
As to `CCN(C)C(=O)c1ccc(-c2ccc3c(n2)Oc2nc(C)ccc2[C@@H]3C(C)(C)C(=O)Nc2nnc(C(=O)N3CCOCC3)s2)cc1` [Example 50], for the setting “7 h”, the EC50 worked out at 908 nM and the Emax amounted to 35.4%.
On to `CN(C)C(=O)c1ccc(-c2ccc3c(n2)Oc2nc(N(C)C)ccc2C3C(C)(C)C(=O)Nc2nncs2)cc1F` (stereo not drawn) [Example 73, 4-(8-(dimethylamino)-5-(1,1-dimethyl-2-oxo-2-(1,3,4-thiadiazol-2-ylamino)ethyl)-5H-pyrido[3′,2′:5,6]pyrano[2,3-b]pyridin-2-yl)-2-fluoro-N,N-dimethylbenzamide], for which, under “7 h”, the EC50 is 194 nM and the Emax was found to be 43.4%.
For `CCN(C)C(=O)c1ccc(-c2ccc3c(n2)Oc2nc(Cl)ccc2C3C(C)(C)C(=O)Nc2nnc(C)s2)cc1` (stereo not drawn) [Example 58, 4-(8-chloro-5-(1,1-dimethyl-2-((5-methyl-1,3,4-thiadiazol-2-yl)amino)-2-oxoethyl)-5H-pyrido[3′,2′:5,6]pyrano[2,3-b]pyridin-2-yl)-N-ethyl-N-methylbenzamide], under “7 h”, the EC50 stood at 58.1 nM and the Emax is 57.7%.
As for `Cc1ccc2c(n1)Oc1nc(-c3ccc(C(=O)N(C)C)cc3)ccc1[C@H]2C(C)(C)C(=O)Nc1nnn(C)n1` [Example 94], under “7 h”, the 50% effective concentration (EC50) was 790 nM and the Emax was determined as 35.9%.
In the case of `CN(C)C(=O)c1ccc(-c2ccc3c(n2)Oc2cnccc2C3C(C)(C)C(=O)Nc2nncs2)cc1` (stereo not drawn) [Example 1, 4-(5-(1,1-dimethyl-2-oxo-2-(1,3,4-thiadiazol-2-ylamino)ethyl)-5H-pyrido[4′,3′:5,6]pyrano[2,3-b]pyridin-2-yl)-N,N-dimethylbenzamide], where the note is “7 h”, the EC50 was 255 nM and the Emax worked out at 29.3%.
On to `CN(C)c1ccc2c(n1)Oc1nc(-c3ccc(C(=O)N4CCOCC4)cc3)ccc1C2C(C)(C)C(=O)Nc1nncs1` (stereo not drawn) [Example 72], for which, where the note is “7 h”, the 50% effective concentration (EC50) was 18 nM and the Emax stood at 48.7%.
As to `Cc1ccc2c(n1)Oc1nc(-c3ccc(C(C)(C)O)cc3)ccc1[C@H]2C(C)(C)C(=O)Nc1nncs1` [Example 89], under “7 h”, the EC50 was found to be 21 nM and the Emax is 46.9%.
The corresponding values for `CN(C)C(=O)c1ccc(-c2ccc3c(n2)Oc2nc(Cl)ccc2C3C(C)(C)C(=O)Nc2nnc(C(=O)NC3CC3)s2)cc1` (stereo not drawn) [Example 62] are 352 nM and 59.5%.
`Cc1ccc2c(n1)Oc1nc(-c3ccc(C(=O)N4CCOCC4)cc3)ccc1C2C(C)(C)C(=O)Nc1nncs1` (stereo not drawn) [Example 15]: for the setting “7 h”, the EC50 came to 460 nM and the Emax was 47.4%.
For the molecule `CN(C)C(=O)c1ccc(-c2ccc3c(n2)Oc2nc(N(C)C)ccc2C3C(C)(C)C(=O)Nc2nncs2)cc1` (stereo not drawn) [Example 67, 4-(8-(dimethylamino)-5-(1,1-dimethyl-2-oxo-2-(1,3,4-thiadiazol-2-ylamino)ethyl)-5H-pyrido[3′,2′:5,6]pyrano[2,3-b]pyridin-2-yl)-N,N-dimethylbenzamide], for the setting “7 h”, the EC50 was determined as 53 nM and the Emax was 57.9%.
The corresponding values for `Cc1ccc2c(n1)Oc1nc(-c3ccc(C(=O)N(C)C)cc3)ccc1[C@H]2C(C)(C)C(=O)Nc1ncns1` [Example 13] are 233 nM and 38.1%.
As to `Cc1ccc2c(n1)Oc1nc(-c3ccc(SC(C)C)cc3)ccc1[C@H]2C(C)(C)C(=O)Nc1nncs1` [Example 27], where the note is “7 h”, the EC50 came to 41.9 nM and the Emax is 32.4%.
With `Cc1ccc2c(n1)Oc1nc(-c3ccc([S+](C)[O-])cc3)ccc1C2C(C)(C)C(=O)Nc1nncs1` [Example 36, (4-((5S)-5-(1,1-dimethyl-2-oxo-2-(1,3,4-thiadiazol-2-ylamino)ethyl)-8-methyl-5H-pyrido[3′,2′:5,6]pyrano[2,3-b]pyridin-2-yl)phenyl)(methyl)sulfoniumolate], where the note is “7 h”, the EC50 worked out at 526 nM and the Emax stood at 26.9%.
In the same order, the values of `Cc1ccc2c(n1)Oc1nc(-c3ccc(OC(C)C)cc3)ccc1[C@H]2C(C)(C)C(=O)Nc1nncs1` [Example 30] are 41.6 nM and 34.6%.
For the molecule `CCN(C)C(=O)c1ccc(-c2ccc3c(n2)Oc2nc(C)ccc2[C@@H]3C(C)(C)C(=O)Nc2ncc(C)s2)cc1` [Example 33], under “7 h”, the concentration giving a half-maximal response (EC50) was 449 nM and the Emax turned out to be 50.8%.

These data come from patent US8304539B2, “Fused heteroaryl modulators of glucocorticoid receptor, AP-1, and/or NF-κB activity and use thereof” (Bristol-Myers Squibb Company, priority 2008, dated 2012).
